Test results from US20240148718A1, “INHIBITING MUTANT ISOCITRATE DEHYDROGENASE 1 (mIDH-1)” (FORMA Therapeutics, Inc., priority 2018, published 2024).

How the values were obtained:
[1] = tested on: IDH1m clone in AML patients; assay: IDH1 Variant Allele Frequency (VAF) analysis in Phase 1 patients; assay type: in vivo, human
Procedure: Next generation sequencing was carried out through target enrichment using HaloPlex® Target followed by Illumina® sequencing; coverage>100X across 75 genes. Digitial droplet PCR (ddPCR) was carried out through an input of 20 ng on a Stilla 3-channel system; VAF data based on >20,000 droplets.
25 patients achieved an objective response and 6 patients with SD had available longitudinal samples for analysis (VAF at C3).

BCL6 = BCL6 (Homo sapiens, UniProt P41182); assay: Surface Plasmon Resonance (SPR), control surface; assay type: binding; conditions: immobilized unrelated protein BCL6
[2] = tested on: AML/MDS harboring IDH1-R132 mutations; assay: Phase 1 dose escalation and expansion study, investigator-assessed response; assay type: in vivo, human

SMILES: C[C@H](Nc1ccc(C#N)n(C)c1=O)c1cc2cc(Cl)ccc2[nH]c1=O [Compound 1, 5-{[(1S)-1-(6-chloro-2-oxo-1,2-dihydroquinolin-3-yl)ethyl]amino}-1-methyl-6-oxo-1,6-dihydropyridine-2-carbonitrile]
- patients with clearance/significant reduction of the IDH1m VAF ([1]; 3 of 6 patients with stable disease): 50%
- patients with IDH1 mutation clearance/significant VAF reduction ([1]; 10 of 25 patients with an IWG (objective) response, single agent or with azacitidine, VAF at ≥C3): 40%
- IDH1 mutation and 2-HG, case study 2 ([1]; one treatment naive AML secondary to MDS patient, single agent, stable for 15 cycles, no IWG response): IDH1 mutation clearance and normalization of 2-HG were observed
- binding to control surface (BCL6): no binding was observed
- CR/CRm, n (%) ([2]; All Pts): 5 (16) n (%)
- CRh, n (%) ([2]; All Pts): 3 (9) n (%)
- Marrow CR, n (%) ([2]; All Pts): 1 (3) n (%)
- PD, n (%) ([2]; All Pts): 3 (9) n (%)
- CR/CRm, n (%) ([2]; R/R AML): 4 (18) n (%)
- CRh, n (%) ([2]; R/R AML): 3 (14) n (%)
- Cri, n (%) ([2]; R/R AML): 2 (9) n (%)
- NE, n (%) ([2]; R/R AML): 6 (27) n (%)
- PD, n (%) ([2]; R/R AML): 2 (9) n (%)
- pts achieving ORR ([2]; R/R AML): 41%
